This note sets out measurements from US9321790B2, “Pyrimidinone derivatives as antimalarial agents” (SANOFI, priority 2012, dated 2016).

Read-outs that look alike come from different tables or passages of the source. A value given as a limit tells only on which side of the number the result lay.

One assay addresses human PI3Kα (Homo sapiens (Human), UniProt P42336). In words: Human PI3Kα activity test (luciferin/luciferase ATP consumption, KinaseGlo). The class given is biochemical. The settings on record: read-out: IC50 Human PI3Kα. (In general: In Kinase-Glo more light means more ATP remaining.)
Assay [1] has as its system Plasmodium falciparum (strain NF54). In words: Antimalarial activity test: growth of Plasmodium falciparum in infected human erythrocytes, 3H-hypoxanthine incorporation. The class given is cell-based. The settings on record: strain NF54 sensitive to chloroquine, 72 h total incubation. Here is the method: The compounds according to the invention underwent pharmacological trials to determine their inhibitory effect on the growth of Plasmodium falciparum (strain NF54 sensitive to inhibition with chloroquine) in an in vitro test using infected human erythrocytes. The growth of the parasites is measured via the incorporation of tritiated hypoxanthine compared with the incorporation in the absence of drug. The tests are performed in 96-well microplates (Falcon™ 96-well microtiter plates, ref. No. 353072) in RPMI 1640 solutions (10.44 g/l) (without hypoxanthine) with HEPES (5.94 g/l), NaHCO3 (2.1 g/l), neomycin ([…])+AlbumaxR II (5 g/l) supplemented with human erythrocytes with a final hematocrit of 1.25% and a final parasitemia of 0.15%.
The stock solution of the compounds is prepared at 10 mg/mL in DMSO. For the test, fresh solutions at the desired concentrations are prepared in RPMI medium. For the test, 100 μl of compound are mixed with 100 μl of infected blood. For the determination of the IC50 values, the compounds are tested in twofold serial dilution.
The plates are incubated at 37° C. under a humid atmosphere with 93% N2, 4% CO2 and 3% O2. After 48 hours, 50 μl of ^3H-hypoxanthine (=0.5 μCi) in RPMI medium are added to each well and incubation is continued for a further 24 hours. Next, the plates are washed with distilled water and the cell lyzate is transferred onto fiberglass filters. The filters are dried and the radioactivity is determined by liquid scintillation. The results in cpm are converted into percentages of inhibition. The inhibitory activity is given by the concentration that inhibits 50% of the growth of the parasite relative to a control without compound.

Setting [2] is: PI3Kα (p110α/p85α), 50 μM PIP2, 2 μM ATP, 90 minutes.
The mark [3] stands for this setting: Plasmodium falciparum, Erythrocyte.
[4] abbreviates: known compounds of WO 2011/001 112 and WO 2011/001 113.

Chain of human PI3Kα (P42336 whole entry): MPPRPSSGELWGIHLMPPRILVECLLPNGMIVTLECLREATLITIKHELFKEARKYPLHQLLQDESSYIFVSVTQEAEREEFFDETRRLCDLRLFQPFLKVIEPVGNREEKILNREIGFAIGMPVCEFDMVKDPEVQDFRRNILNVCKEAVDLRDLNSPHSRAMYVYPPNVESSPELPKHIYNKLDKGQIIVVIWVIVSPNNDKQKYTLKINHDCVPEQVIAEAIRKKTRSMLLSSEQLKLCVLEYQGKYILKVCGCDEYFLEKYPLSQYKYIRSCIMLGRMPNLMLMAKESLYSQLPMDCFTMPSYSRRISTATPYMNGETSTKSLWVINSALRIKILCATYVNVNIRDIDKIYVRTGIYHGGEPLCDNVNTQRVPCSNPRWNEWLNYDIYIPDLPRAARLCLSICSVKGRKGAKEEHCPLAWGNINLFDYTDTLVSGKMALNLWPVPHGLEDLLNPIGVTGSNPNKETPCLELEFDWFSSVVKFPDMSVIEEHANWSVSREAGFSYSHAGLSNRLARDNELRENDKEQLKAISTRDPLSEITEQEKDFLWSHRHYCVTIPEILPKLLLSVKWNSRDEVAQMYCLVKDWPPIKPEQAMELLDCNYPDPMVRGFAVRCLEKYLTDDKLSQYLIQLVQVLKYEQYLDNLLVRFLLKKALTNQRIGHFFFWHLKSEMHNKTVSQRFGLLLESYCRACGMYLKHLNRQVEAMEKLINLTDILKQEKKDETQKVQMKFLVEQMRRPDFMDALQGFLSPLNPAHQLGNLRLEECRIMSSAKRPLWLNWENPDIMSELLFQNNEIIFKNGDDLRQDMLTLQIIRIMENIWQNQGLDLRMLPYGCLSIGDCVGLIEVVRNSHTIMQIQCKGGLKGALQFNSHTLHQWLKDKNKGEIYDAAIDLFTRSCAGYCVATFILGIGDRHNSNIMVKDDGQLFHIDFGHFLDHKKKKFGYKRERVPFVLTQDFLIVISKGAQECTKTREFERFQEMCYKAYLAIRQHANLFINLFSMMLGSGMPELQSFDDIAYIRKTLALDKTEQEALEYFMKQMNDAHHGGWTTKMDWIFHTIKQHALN
Chain of human PI3Kα (P27986 whole entry partner): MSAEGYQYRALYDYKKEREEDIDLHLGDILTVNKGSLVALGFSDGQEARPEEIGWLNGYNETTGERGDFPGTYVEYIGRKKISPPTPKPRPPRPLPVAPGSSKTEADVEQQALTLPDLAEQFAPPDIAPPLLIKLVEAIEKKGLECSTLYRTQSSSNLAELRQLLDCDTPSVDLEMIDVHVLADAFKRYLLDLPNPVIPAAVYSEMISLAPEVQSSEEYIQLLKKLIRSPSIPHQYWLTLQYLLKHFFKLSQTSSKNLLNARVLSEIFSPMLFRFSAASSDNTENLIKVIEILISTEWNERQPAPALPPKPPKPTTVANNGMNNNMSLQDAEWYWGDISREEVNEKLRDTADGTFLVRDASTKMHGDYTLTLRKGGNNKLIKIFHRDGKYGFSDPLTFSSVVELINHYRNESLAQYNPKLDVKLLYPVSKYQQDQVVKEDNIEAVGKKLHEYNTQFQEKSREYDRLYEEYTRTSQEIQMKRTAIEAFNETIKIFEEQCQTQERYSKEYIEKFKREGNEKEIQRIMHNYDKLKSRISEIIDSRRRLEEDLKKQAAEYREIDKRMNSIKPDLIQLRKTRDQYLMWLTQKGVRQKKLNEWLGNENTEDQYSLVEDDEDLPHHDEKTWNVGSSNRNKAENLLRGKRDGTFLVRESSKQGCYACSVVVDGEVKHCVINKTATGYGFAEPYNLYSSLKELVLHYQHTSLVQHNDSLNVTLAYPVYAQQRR
Description for human PI3Kα: The test uses a luciferin/luciferase system to measure the concentration of ATP and its consumption during the enzymatic reaction.
After 90 minutes, the reaction is quenched by adding 20 μl/well of KinaseGlo reagent (Promega V6713). After 10 minutes in the dark, the luminescence is read using a PHERAStar microplate reader (reading at 0.8 sec/well).

As to `CC(C)(CN1c2nc(N3C[C@@H]4C[C@H]3CO4)cc(=O)n2CC[C@H]1C(F)(F)F)c1ccncc1` [Compound 1, (8S)-9-(2-methyl-2-pyrid-4-ylpropyl)-2-(1S,4S)-2-oxa-5-azabicyclo[2.2.1]hept-5-yl-8-trifluoromethyl-6,7,8,9-tetrahydropyrimido[1,2-a]pyrimidin-4-one], the half-maximal inhibitory concentration (IC50) (as a rule, the point on the concentration scale where inhibition reaches its midpoint) worked out at 3130 nM on human PI3Kα (setting [2]) and 20 nM in assay [1] (setting [3]). Take `O=C(CN1c2nc(N3C[C@@H]4C[C@H]3CO4)cc(=O)n2CC[C@H]1C(F)(F)F)c1ccncc1` [Compound 2, (8S)-2-(1S,4S)-2-oxa-5-azabicyclo[2.2.1]hept-5-yl-9-(2-oxo-2-pyrid-4-ylethyl)-8-trifluoromethyl-6,7,8,9-tetrahydropyrimido[1,2-a]pyrimidin-4-one]: the IC50 at human PI3Kα (setting [2]) is ≥ 10000 nM; in assay [1] (setting [3]), 15 nM. With `Nc1ccc(C(=O)CN2c3nc(N4CC5CC4CO5)cc(=O)n3CC[C@H]2C(F)(F)F)cn1` (stereo partly drawn) [Compound 3, (8S)-9-[2-(6-Aminopyrid-3-yl)-2-oxoethyl]-2-oxa-5-azabicyclo[2.2.1]hept-5-yl-8-trifluoromethyl-6,7,8,9-tetrahydropyrimido[1,2-a]pyrimidin-4-one], the 50% inhibitory concentration (IC50) at human PI3Kα (setting [2]) came out at 7200 nM; in assay [1], 13 nM.

`Cc1ccc(C(=O)CN2c3nc(N4C[C@@H]5C[C@H]4CO5)cc(=O)n3CC[C@H]2C(F)(F)F)cn1` [Compound 4, (8S)-9-[2-(6-methylpyrid-3-yl)-2-oxoethyl]-2-(1S,4S)-2-oxa-5-azabicyclo[2.2.1]hept-5-yl-8-trifluoromethyl-6,7,8,9-tetrahydropyrimido[1,2-a]pyrimidin-4-one]: the half-inhibitory concentration (IC50) at human PI3Kα (setting [2]) was > 10000 nM; in assay [1] (setting [3]) it was 58 nM. On to `CNc1ccc(C(=O)CN2c3nc(N4C[C@@H]5C[C@H]4CO5)cc(=O)n3CC[C@H]2C(F)(F)F)cn1` [Compound 5, (8S)-9-[2-(6-methylaminopyrid-3-yl)-2-oxoethyl]-2-(1S,4S)-2-oxa-5-azabicyclo[2.2.1]hept-5-yl-8-trifluoromethyl-6,7,8,9-tetrahydropyrimido[1,2-a]pyrimidin-4-one], for which the concentration for half-maximal inhibition (IC50) at human PI3Kα (setting [2]) is 8200 nM; in assay [1] (setting [3]) it was 95 nM. With `CN(C)c1ccc(C(=O)CN2c3nc(N4C[C@@H]5C[C@H]4CO5)cc(=O)n3CC[C@H]2C(F)(F)F)cn1` [Compound 6, (8S)-9-[2-(6-dimethylaminopyrid-3-yl)-2-oxoethyl]-2-(1S,4S)-2-oxa-5-azabicyclo[2.2.1]hept-5-yl-8-trifluoromethyl-6,7,8,9-tetrahydropyrimido[1,2-a]pyrimidin-4-one], the IC50 on human PI3Kα (setting [2]) is > 10000 nM; in assay [1] (setting [3]), > 200 nM. As to `O=C(CN1c2nc(N3C[C@@H]4C[C@H]3CO4)cc(=O)n2CC[C@H]1C(F)(F)F)c1cccnc1` [Compound 7, (8S)-2-(1S,4S)-2-oxa-5-azabicyclo[2.2.1]hept-5-yl-9-(2-oxo-2-pyrid-3-ylethyl)-8-trifluoromethyl-6,7,8,9-tetrahydropyrimido[1,2-a]pyrimidin-4-one], the IC50 was ≥ 10000 nM at human PI3Kα (setting [2]) and 10 nM in assay [1] (setting [3]). On to `CN(C)c1ccc(C(=O)CN2c3nc(N4C[C@@H]5C[C@H]4CO5)cc(=O)n3C[C@@]2(C)C(F)(F)F)cn1` [Compound 8, 1-[2-(6-Dimethylaminopyrid-3-yl)-2-oxoethyl]-2-(S)-methyl-7-(1S,4S)-2-oxa-5-azabicyclo[2.2.1]hept-5-yl-2-trifluoromethyl-2,3-dihydro-1H-imidazo[1,2-a]pyrimidin-5-one], for which the IC50 is > 10000 nM on human PI3Kα (setting [2]) and > 200 nM in assay [1] (setting [3]). For `CNc1ccc(C(=O)CN2c3nc(N4C[C@@H]5C[C@H]4CO5)cc(=O)n3C[C@@]2(C)C(F)(F)F)cn1` [Compound 9, 2-methyl-1-[2-(6-methylaminopyrid-3-yl)-2-oxoethyl]-7-(1S,4S)-2-oxa-5-azabicyclo[2.2.1]hept-5-yl-2-((S)-trifluoromethyl)-2,3-dihydro-1H-imidazo[1,2-a]pyrimidin-5-one], the IC50 at human PI3Kα (setting [2]) was > 10000 nM; in assay [1] (setting [3]) it was > 200 nM. `COc1ccc(CCN2c3nc(N4C[C@@H]5C[C@H]4CO5)cc(=O)n3C[C@@]2(C)C(F)(F)F)cc1` [Compound 10, (8S)-1-[2-(4-Methoxyphenyl)ethyl]-2-methyl-7-(1S,4S)-2-oxa-5-azabicyclo[2.2.1]hept-5-yl-2-trifluoromethyl-2,3-dihydro-1H-imidazo[1,2-a]pyrimidin-5-one]: the figures for the half-maximal inhibitory concentration (IC50) (on human PI3Kα (setting [2]); in assay [1]) were 7200 nM and 11 nM, respectively. As to `C[C@@]1(C(F)(F)F)Cn2c(nc(N3C[C@@H]4C[C@H]3CO4)cc2=O)N1CC(=O)c1ccc(N)nc1` [Compound 11, (S)-1-[2-(6-Aminopyrid-3-yl)-2-oxoethyl]-2-methyl-7-(1S,4S)-2-oxa-5-azabicyclo[2.2.1]hept-5-yl-2-trifluoromethyl-2,3-dihydro-1H-imidazo[1,2-a]pyrimidin-5-one], the IC50 was ≥ 10000 nM on human PI3Kα (setting [2]) and 40 nM in assay [1] (setting [3]). As to `O=c1cc(N2C[C@@H]3C[C@H]2CO3)nc2n1CC[C@@H](C(F)(F)F)N2CCc1cccnc1` [Compound 12, (8S)-2-(1S,4S)-2-oxa-5-azabicyclo[2.2.1]hept-5-yl-9-(2-pyrid-3-ylethyl)-8-trifluoromethyl-6,7,8,9-tetrahydropyrimido[1,2-a]pyrimidin-4-one], the IC50 at human PI3Kα (setting [2]) was 2900 nM; in assay [1] (setting [3]), 9 nM.

Regarding `C[C@@]1(C(F)(F)F)Cn2c(nc(N3C[C@@H]4C[C@H]3CO4)cc2=O)N1CCc1cccnc1` [Compound 13, 2-Methyl-7-(1S,4S)-2-oxa-5-azabicyclo[2.2.1]hept-5-yl-1-(2-pyrid-3-ylethyl)-2-((S)-trifluoromethyl)-2,3-dihydro-1H-imidazo[1,2-a]pyrimidin-5-one], the IC50 on human PI3Kα (setting [2]) was found to be 5750 nM; in assay [1], 21 nM. With `O=C(CN1c2nc(N3C[C@@H]4C[C@H]3CO4)cc(=O)n2CC[C@H]1C(F)(F)F)c1ccc(NCCO)nc1` [Compound 14, (8S)-9-{2-[6-(2-hydroxyethylamino)pyrid-3-yl]-2-oxoethyl}-2-(1S,4S)-2-oxa-5-azabicyclo[2.2.1]hept-5-yl-8-trifluoromethyl-6,7,8,9-tetrahydropyrimido[1,2-a]pyrimidin-4-one], the half-maximal inhibitory concentration (IC50) is > 10000 nM on human PI3Kα (setting [2]) and 70 nM in assay [1] (setting [3]).

As to `Cc1cncc(C(=O)CN2c3nc(N4C[C@@H]5C[C@H]4CO5)cc(=O)n3CC[C@H]2C(F)(F)F)c1` [Compound 15, (8S)-9-[2-(5-methylpyrid-3-yl)-2-oxoethyl]-2-(1S,4S)-2-oxa-5-azabicyclo[2.2.1]hept-5-yl-8-trifluoromethyl-6,7,8,9-tetrahydropyrimido[1,2-a]pyrimidin-4-one], the values for the IC50 (on human PI3Kα (setting [2]); in assay [1] (setting [3])) were > 7200 nM and 150 nM, respectively. As for `O=c1cc(N2CC3CCC(C2)O3)nc2n1CC[C@@H](C(F)(F)F)N2C[C@@H](O)c1ccccc1` [Compound 80, (8S)-9-((S)-2-hydroxy-2-phenylethyl)-2-(8-oxa-3-azabicyclo[3.2.1]oct-3-yl)-8-trifluoromethyl-6,7,8,9-tetrahydropyrimido[1,2-a]pyrimidin-4-one], the half-maximal inhibitory concentration (IC50) at human PI3Kα (setting [2]) was 1600 nM. Turning to `COc1ccc(CCN2c3nc(N4CC5CCC(C4)O5)cc(=O)n3CC[C@H]2C(F)(F)F)cc1` [Compound 81, (8S)-9-[2-(4-Methoxyphenyl)ethyl]-2-(8-oxa-3-azabicyclo[3.2.1]oct-3-yl)-8-trifluoromethyl-6,7,8,9-tetrahydropyrimido[1,2-a]pyrimidin-4-one], the half-inhibitory concentration (IC50) at human PI3Kα (setting [2]) came to 2000 nM. Regarding `O=C(CN1c2nc(N3CC4CCC(C3)O4)cc(=O)n2CC[C@H]1C(F)(F)F)c1cccnc1` [Compound 87, (8S)-2-(8-Oxa-3-azabicyclo[3.2.1]oct-3-yl)-9-(2-oxo-2-pyrid-3-ylethyl)-8-trifluoromethyl-6,7,8,9-tetrahydropyrimido[1,2-a]pyrimidin-4-one], the IC50 at human PI3Kα (setting [2]) was ≥ 10000 nM. Take `COc1ccc(CCN2c3nc(N4CCOCC4)cc(=O)n3C[C@@]2(C)C(F)(F)F)cc1` [Example 1 (p. 39, WO 2011/001 112), reference compound]: the IC50 at human PI3Kα (setting [4]) turned out to be 15 nM. For the compound `COc1ccc(CCN2c3nc(N4CCOCC4)cc(=O)n3CC[C@H]2C(F)(F)F)cc1` [Example 1 (p. 44, WO 2011/001 113), reference compound], on human PI3Kα (setting [4]), the concentration for half-maximal inhibition (IC50) stood at 9 nM. Take `C[C@@]1(C(F)(F)F)Cn2c(nc(N3CCOCC3)cc2=O)N1C[C@@H](O)c1ccccc1` [Example 10 (p. 61, WO 2011/001 112), reference compound]: the IC50 on human PI3Kα (setting [4]) was determined as 17 nM.
